We go through 10 compounds from US20130035326A1 (AMBIT BIOSCIENCES CORPORATION, priority 2009, published 2013).

Test [1] deals with T1, FLT3 kinase (Homo sapiens, UniProt P36888).
T1 construct: made in house; host or cells: T7 phage display or HEK-293 cells
T1 sequence (P36888 27-993): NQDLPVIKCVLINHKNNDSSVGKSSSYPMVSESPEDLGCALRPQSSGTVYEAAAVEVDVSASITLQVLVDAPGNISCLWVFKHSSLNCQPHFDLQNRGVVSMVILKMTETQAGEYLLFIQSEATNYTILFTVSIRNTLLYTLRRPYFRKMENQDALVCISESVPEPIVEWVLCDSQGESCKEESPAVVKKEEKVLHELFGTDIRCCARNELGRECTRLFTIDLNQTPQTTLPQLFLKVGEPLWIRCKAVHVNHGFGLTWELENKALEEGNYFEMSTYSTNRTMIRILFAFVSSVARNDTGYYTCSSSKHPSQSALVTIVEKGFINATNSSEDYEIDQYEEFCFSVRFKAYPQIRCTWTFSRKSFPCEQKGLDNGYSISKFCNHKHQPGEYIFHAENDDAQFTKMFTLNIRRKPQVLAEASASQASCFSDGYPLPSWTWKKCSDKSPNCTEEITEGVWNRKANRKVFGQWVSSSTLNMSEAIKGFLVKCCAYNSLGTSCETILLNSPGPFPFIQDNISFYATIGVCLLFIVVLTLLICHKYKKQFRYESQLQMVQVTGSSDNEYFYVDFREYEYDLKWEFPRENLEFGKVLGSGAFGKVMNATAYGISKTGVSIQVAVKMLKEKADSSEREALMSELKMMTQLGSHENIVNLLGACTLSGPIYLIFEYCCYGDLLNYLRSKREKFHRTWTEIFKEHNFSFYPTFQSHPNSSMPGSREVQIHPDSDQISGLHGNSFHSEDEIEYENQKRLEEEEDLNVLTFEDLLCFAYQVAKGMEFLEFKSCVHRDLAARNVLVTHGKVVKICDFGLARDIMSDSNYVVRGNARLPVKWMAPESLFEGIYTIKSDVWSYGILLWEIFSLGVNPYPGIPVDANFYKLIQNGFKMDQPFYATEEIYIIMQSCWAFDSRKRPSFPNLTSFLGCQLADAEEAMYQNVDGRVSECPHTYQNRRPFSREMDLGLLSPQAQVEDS
As to the kind of experiment: Competition binding assay, FLT3 Kd. A digest of the protocol:
(§1)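 Readout: qPCR of kinase eluted from ligand-coated beads. T7 phage-fused or HEK-293-expressed DNA-tagged kinase, 1 h RT equilibration with compound; Kd from 11-pt 3-fold series.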

Test [2] concerns the target T2, KIT kinase (Homo sapiens, UniProt P10721).
T2 construct: made in house; host or cells: T7 phage display or HEK-293 cells
Description: Competition binding assay, KIT Kd. A digest of the protocol: as §1

Test [3] has as its target T3, CSF-1R kinase (Homo sapiens, UniProt P07333).
T3 construct: made in house; host or cells: T7 phage display or HEK-293 cells
Description: Competition binding assay, CSF-1R Kd. In a few lines:
as §1

Test [4] relates to MV4-11 cells. Description: MV4-11 cell proliferation assay (Alamar Blue). Type of test: cell-based. The note with it: Homo sapiens, MV4-11, 72 h, 3 days incubation. A digest of the protocol:
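Flt3-ITD MV4-11 cells were serum-starved overnight in Iscove's with 0.5% FBS, then given compound at 9 half-log concentrations (0.5% DMSO) for 3 days at 37° C. Alamar Blue reduction was read after 3 h by fluorescence (560/590 nm). IC50 is the mean of duplicates versus negative control.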
Background: Alamar Blue is a resazurin reagent that responds to reducing activity.

In test [5] the target is kinase panel containing either 359 or 386 distinct kinases. As to the kind of experiment: Selectivity score S10 from competition binding against a panel of kinases. The note with it: compounds at 10 μM; for Kinase specificty: S(10)-359 panel: panel of 359 distinct kinases; for Kinase specificty: S(10)-386 panel: panel of 386 distinct kinases. In a few lines:
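Compounds were tested at 10 μM in competition binding against T7 phage-fused or HEK-293-expressed DNA-tagged kinases with immobilized affinity ligands, 1 h at room temperature. Bound kinase was quantified by qPCR as percent of DMSO control; S10 is the fraction of distinct kinases (mutants excluded) with POC below 10.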

The term Kd denotes the free concentration of one partner at which half of the binding sites on the other are occupied at equilibrium, for simple one-to-one binding. A lower Kd goes with tighter binding. As usually defined, the IC50 is the concentration that inhibits the measured activity by half. Lower therefore signals higher potency.

Where only a bound is given, the exact number is not on record here.

T3 sequence (P07333 20-972): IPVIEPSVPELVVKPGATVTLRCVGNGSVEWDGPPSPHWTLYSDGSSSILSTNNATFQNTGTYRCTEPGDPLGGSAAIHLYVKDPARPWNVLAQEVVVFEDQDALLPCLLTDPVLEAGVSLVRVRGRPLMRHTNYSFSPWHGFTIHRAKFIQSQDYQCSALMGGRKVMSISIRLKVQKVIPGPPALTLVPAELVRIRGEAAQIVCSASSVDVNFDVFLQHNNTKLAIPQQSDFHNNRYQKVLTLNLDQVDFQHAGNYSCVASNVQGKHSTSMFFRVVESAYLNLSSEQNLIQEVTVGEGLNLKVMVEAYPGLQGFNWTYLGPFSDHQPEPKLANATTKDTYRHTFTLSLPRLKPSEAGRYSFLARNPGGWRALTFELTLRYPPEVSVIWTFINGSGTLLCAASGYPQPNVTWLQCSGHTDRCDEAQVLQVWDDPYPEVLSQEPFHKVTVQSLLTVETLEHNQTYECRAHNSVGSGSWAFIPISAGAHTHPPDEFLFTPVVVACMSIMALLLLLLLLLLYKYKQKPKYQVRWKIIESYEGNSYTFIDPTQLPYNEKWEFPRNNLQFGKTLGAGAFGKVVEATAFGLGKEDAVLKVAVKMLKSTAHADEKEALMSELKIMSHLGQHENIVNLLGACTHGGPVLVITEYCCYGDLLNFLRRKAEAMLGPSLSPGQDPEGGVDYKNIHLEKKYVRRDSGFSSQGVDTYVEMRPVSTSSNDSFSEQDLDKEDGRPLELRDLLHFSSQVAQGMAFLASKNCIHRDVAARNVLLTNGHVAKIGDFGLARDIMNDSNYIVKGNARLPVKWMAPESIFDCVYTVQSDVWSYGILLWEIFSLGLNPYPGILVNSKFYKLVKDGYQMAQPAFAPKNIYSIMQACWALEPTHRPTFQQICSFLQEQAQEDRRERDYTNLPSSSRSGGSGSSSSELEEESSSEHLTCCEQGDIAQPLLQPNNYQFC
T2 sequence (P10721 26-976): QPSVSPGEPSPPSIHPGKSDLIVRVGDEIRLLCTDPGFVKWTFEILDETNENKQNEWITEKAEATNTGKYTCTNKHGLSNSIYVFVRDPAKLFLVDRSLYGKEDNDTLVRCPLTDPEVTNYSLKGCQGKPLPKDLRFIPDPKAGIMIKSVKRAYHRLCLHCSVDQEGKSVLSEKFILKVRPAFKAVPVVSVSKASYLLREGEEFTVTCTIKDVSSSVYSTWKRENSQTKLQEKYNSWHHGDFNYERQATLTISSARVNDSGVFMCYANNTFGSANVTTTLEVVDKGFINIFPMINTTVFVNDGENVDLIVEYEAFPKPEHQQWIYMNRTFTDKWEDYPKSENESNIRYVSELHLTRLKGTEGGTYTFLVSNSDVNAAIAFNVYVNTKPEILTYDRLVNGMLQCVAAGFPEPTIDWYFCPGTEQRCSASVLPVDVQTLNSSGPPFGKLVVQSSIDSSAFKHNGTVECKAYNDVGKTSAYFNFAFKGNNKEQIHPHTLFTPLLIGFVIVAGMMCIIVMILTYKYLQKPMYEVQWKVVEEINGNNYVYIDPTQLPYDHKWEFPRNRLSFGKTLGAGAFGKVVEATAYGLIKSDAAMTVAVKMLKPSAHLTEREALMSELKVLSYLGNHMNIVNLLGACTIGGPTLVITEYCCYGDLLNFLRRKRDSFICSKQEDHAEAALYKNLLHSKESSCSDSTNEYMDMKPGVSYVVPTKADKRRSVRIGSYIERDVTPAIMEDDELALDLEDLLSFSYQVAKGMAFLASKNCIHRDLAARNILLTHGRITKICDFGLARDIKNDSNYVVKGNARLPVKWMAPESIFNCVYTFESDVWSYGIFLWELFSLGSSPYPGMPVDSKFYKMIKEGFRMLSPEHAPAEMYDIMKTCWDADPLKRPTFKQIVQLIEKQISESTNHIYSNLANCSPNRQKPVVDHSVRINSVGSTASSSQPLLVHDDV

As for `CC(C)(C)Nc1ncc(-c2ccc(NC(=O)Nc3cc(C(C)(C)C)on3)nc2)cn1` [Example 62, 1-(5-(2-(tert-butylamino)pyrimidin-5-yl)pyridin-2-yl)-3-(5-tert-butylisoxazol-3-yl)urea], the values for the Kd in test [1], in test [2] and in test [3] were 1 to 10 nM, 1 to 10 nM and 10 to 100 nM, respectively. The compound also came in with an IC50 in test [4] of 100 to 500 nM. Also, the “Kinase specificty: S(10)-359 panel” value in test [5] is “A (A≦0.1)”.
As to `CC1(c2cc(NC(=O)Cc3ccc(-c4ccc(N)nc4)cc3)no2)CC1.CS(=O)(=O)O` [Example 100, 5-(4-(2-(5-(1-methylcyclopropyl)isoxazol-3-ylamino)-2-oxoethyl)phenyl)pyridin-2-aminium methanesulfonate], the Kd in test [1] is at most 1 nM; in test [2] it was at most 1 nM; in test [3], at most 10 nM. Moreover, the IC50 in test [4] lay in the range of 1 to 10 nM. Besides, in test [5], the “Kinase specificty: S(10)-386 panel” value is on record as “A (A≦0.1)”.
As to `CC(C)(C)c1cc(NC(=O)Nc2ccc(-c3cnc4c(c3)CCC(=O)N4)cc2)no1` [Example 9, 1-(5-tert-butylisoxazol-3-yl)-3-(4-(7-oxo-5,6,7,8-tetrahydro-1,8-naphthyridin-3-yl)phenyl)urea], the results for the Kd in test [1], in test [2] and in test [3] were 1 to 10 nM, 1 to 10 nM and at most 10 nM, respectively. Moreover, in test [4], the IC50 was in the range of 10 to 100 nM. The “Kinase specificty: S(10)-359 panel” value in test [5] was “A (A≦0.1)”.
Turning to `CS(=O)(=O)O.Nc1ccc(-c2ccc(CC(=O)Nc3cc(C4(C(F)(F)F)CC4)on3)c(F)c2)cn1` [Example 139, 5-(3-fluoro-4-(2-oxo-2-(5-(1-(trifluoromethyl)cyclopropyl)isoxazol-3-ylamino)ethyl)phenyl)pyridin-2-aminium methanesulfonate], the Kd in test [1] was at most 1 nM; in test [2] it was 1 to 10 nM; in test [3], at most 10 nM. The compound further gave an IC50 in test [4] of at most 1 nM. Further, the “Kinase specificty: S(10)-386 panel” value in test [5] is “B (0.1<B≦0.2 nM)”.
Regarding `CC(C)(C)c1cc(NC(=O)Cc2c(F)cc(-c3ccc(N)nc3)cc2F)no1.CS(=O)(=O)O` [Example 123, 5-(4-(2-(5-tert-butylisoxazol-3-ylamino)-2-oxoethyl)-3,5-difluorophenyl)pyridin-2-aminium methanesulfonate], the dissociation constant (Kd) is at most 1 nM in test [1], 1 to 10 nM in test [2] and at most 10 nM in test [3]. Besides, in test [4], the concentration for half-maximal inhibition (IC50) was at most 1 nM. In test [5], the “Kinase specificty: S(10)-386 panel” value is “B (0.1<B≦0.2 nM)”.
For the compound `CC1(c2cc(NC(=O)Cc3ccc(-c4ccc(N)nc4F)cc3)no2)CC1` [Example 134, 2-(4-(6-amino-2-fluoropyridin-3-yl)phenyl)-N-(5-(1-methylcyclopropyl)isoxazol-3-yl)acetamide], the Kd in test [1] was at most 1 nM; in test [2], at most 1 nM; in test [3], at most 10 nM. The half-inhibitory concentration (IC50) in test [4] fell in the range of 1 to 10 nM. Moreover, in test [5], the “Kinase specificty: S(10)-386 panel” value was “A (A≦0.1)”.
Consider `CC(C)(C)c1cc(NC(=O)Nc2ccc(-c3ccc(N)nc3)c(F)c2)no1` [Example 11, 1-(4-(6-aminopyridin-3-yl)-3-fluorophenyl)-3-(5-tert-butylisoxazol-3-yl)urea], for which the results for the Kd in test [1], in test [2] and in test [3] were at most 1 nM, 1 to 10 nM and at most 10 nM, respectively. The compound also gave a 50% inhibitory concentration (IC50) in test [4] of 1 to 10 nM. The “Kinase specificty: S(10)-359 panel” value in test [5] is “A (A≦0.1)”.
Take `Cc1nc(N)ccc1-c1ccc(NC(=O)Nc2cc(C(C)(C)C)on2)cc1` [Example 23, 1-(4-(6-amino-2-methylpyridin-3-yl)phenyl)-3-(5-tert-butylisoxazol-3-yl)urea]: the Kd in test [1] was at most 1 nM; in test [2], 1 to 10 nM; in test [3], at most 10 nM. Besides, in test [4], the IC50 was in the range of 10 to 100 nM. Besides, in test [5], the “Kinase specificty: S(10)-359 panel” value is given as “A (A≦0.1)”.
Consider `CC(C)(CF)c1cc(NC(=O)Nc2ccc(-c3ccc(N)nc3)cc2)on1` [Example 97, 1-(4-(6-aminopyridin-3-yl)phenyl)-3-(3-(1-fluoro-2-methylpropan-2-yl)isoxazol-5-yl)urea], for which the results for the Kd in test [1], in test [2] and in test [3] were 1 to 10 nM, 1 to 10 nM and at most 10 nM, respectively. The same compound had an IC50 in test [4] of 1 to 10 nM. Further, in test [5], the “Kinase specificty: S(10)-386 panel” value was “A (A≦0.1)”.
Take `Cc1nc(N)ccc1-c1ccc(NC(=O)Nc2cc(C(C)(C)C)on2)nc1` [Example 25, 1-(6′-amino-2′-methyl-3,3′-bipyridin-6-yl)-3-(5-tert-butylisoxazol-3-yl)urea]: the Kd in test [1] is at most 1 nM; in test [2], at most 1 nM; in test [3], 10 to 100 nM. Moreover, the concentration for half-maximal inhibition (IC50) in test [4] fell in the range of 100 to 500 nM. In addition, the “Kinase specificty: S(10)-359 panel” value in test [5] is given as “A (A≦0.1)”.
